According to ChEMBL document CHEMBL4334471, “Discovery of 1,8-disubstituted-[1,2,3]triazolo[4,5-c]quinoline derivatives as a new class of Hippo signaling pathway inhibitors” (Bioorg Med Chem Lett, 2019):

Columns and labels:
[1] = molecular target: Serine/threonine-protein kinase B-raf (Homo sapiens) (UniProt P15056); test: Inhibition of recombinant full length human B-Raf (416 to end residues) assessed as residual activity at 10 uM using myelin basic protein substrate incubated for 40 mins in presence of [gamma-33ATP] by scintillation counting based radiometry assay relative to control
[2] = molecular target: Cyclin-dependent kinase 1/cyclin B1 (Homo sapiens) (UniProt P06493+P14635); test: Inhibition of recombinant full length human CDK1/CyclinB assessed as residual activity at 10 uM using Histone H1 as substrate incubated for 40 mins in presence of [gamma-33ATP] by scintillation counting based radiometry assay relative to control; type: protein-complex assay
Sequence of Cyclin-dependent kinase 1/cyclin B1 (Homo sapiens) (P06493 whole entry, looked up, the tested form may be a part): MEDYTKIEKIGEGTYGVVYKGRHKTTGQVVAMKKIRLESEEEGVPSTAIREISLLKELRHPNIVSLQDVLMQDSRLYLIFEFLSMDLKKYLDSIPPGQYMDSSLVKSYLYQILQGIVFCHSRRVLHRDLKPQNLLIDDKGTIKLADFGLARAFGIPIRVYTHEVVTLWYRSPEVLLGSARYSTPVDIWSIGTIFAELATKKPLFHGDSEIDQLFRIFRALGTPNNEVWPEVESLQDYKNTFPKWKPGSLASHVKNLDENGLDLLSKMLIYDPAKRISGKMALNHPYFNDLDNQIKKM
Sequence of Cyclin-dependent kinase 1/cyclin B1 (Homo sapiens) (P14635 whole entry, looked up, the tested form may be a part): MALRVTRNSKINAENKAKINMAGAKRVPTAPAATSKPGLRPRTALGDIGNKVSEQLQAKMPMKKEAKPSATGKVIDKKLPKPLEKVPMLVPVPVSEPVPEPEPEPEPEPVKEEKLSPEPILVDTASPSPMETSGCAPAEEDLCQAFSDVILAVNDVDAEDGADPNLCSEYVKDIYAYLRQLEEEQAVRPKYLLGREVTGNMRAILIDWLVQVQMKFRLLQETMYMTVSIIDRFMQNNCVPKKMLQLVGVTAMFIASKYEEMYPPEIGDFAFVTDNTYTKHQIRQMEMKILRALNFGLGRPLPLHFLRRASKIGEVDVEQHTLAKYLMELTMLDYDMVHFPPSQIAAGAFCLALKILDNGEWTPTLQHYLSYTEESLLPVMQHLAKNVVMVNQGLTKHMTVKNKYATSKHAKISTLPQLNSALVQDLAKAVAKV

[3] = molecular target: Fibroblast growth factor receptor 2 (Homo sapiens) (UniProt P21802); test: Inhibition of recombinant human FGFR2 (456 to 770 residues) assessed as residual activity at 10 uM using poly(Glu, Tyr) 4:1 as substrate at 40 mins in presence of [gamma-33ATP] by scintillation counting based radiometry assay relative to control
Sequence of Fibroblast growth factor receptor 2 (Homo sapiens) (P21802 22-821 limits assumed): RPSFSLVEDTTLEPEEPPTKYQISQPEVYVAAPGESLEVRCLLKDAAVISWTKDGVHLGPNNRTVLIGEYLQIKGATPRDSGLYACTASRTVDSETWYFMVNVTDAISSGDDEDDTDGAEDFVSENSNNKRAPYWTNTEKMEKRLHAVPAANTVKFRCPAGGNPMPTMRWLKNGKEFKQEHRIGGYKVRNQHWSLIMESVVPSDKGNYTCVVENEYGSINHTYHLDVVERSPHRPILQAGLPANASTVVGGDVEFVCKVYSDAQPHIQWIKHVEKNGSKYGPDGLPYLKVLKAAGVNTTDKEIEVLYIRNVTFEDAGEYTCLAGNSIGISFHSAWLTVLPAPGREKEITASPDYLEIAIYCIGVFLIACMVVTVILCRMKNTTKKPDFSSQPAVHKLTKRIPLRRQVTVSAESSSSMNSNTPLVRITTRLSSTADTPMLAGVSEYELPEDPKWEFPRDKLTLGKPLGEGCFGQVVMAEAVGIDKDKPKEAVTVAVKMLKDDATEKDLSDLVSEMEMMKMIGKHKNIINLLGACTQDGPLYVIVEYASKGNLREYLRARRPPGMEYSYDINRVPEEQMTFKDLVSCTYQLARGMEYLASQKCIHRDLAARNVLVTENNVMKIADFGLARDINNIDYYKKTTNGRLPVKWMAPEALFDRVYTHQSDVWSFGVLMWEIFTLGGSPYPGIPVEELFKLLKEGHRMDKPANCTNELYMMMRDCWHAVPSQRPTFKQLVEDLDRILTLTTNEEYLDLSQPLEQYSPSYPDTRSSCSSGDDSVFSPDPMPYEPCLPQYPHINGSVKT

[4] = molecular target: Citron Rho-interacting kinase (Homo sapiens) (UniProt O14578); test: Inhibition of recombinant human CRIK assessed as residual activity at 10 uM KKLRRTLSVA as substrate incubated 120 mins in presence of [gamma-33ATP] by scintillation counting based radiometry assay relative to control
[5] = molecular target: Bone morphogenetic protein receptor type-1B (Homo sapiens) (UniProt O00238); test: Inhibition of human ALK6 (148 to end residues) assessed as residual activity at 10 uM using casein as substrate incubated for 40 mins in presence of [gamma-33ATP] by scintillation counting based radiometry assay relative to control
[6] = molecular target: Insulin receptor (Homo sapiens) (UniProt P06213); test: Inhibition of human IR (1005 to 1310 residues) assessed as residual activity at 10 uM using KKSRGDYMTMQIG as substrate after 40 mins by [gamma-33ATP] radiometric assay relative to control
Sequence of Insulin receptor (Homo sapiens) (P06213 28-758 limits assumed): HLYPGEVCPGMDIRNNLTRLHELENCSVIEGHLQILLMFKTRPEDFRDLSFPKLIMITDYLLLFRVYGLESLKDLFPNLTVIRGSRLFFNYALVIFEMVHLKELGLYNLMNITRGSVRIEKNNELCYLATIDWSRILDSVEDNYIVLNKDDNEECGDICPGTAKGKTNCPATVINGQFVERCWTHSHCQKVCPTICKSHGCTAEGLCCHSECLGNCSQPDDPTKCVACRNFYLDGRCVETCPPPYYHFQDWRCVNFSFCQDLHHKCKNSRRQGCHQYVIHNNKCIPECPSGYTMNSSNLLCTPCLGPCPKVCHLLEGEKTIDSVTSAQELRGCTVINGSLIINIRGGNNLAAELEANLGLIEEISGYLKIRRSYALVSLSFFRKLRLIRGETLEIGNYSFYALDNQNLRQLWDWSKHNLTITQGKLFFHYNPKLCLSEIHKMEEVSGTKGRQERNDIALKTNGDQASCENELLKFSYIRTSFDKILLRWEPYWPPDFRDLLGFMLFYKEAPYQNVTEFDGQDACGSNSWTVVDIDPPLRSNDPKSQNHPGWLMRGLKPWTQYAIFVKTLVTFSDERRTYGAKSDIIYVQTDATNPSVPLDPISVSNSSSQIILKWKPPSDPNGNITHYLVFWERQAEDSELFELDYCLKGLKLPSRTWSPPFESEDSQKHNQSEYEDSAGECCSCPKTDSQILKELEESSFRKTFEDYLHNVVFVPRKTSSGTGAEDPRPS
Sequence of Insulin receptor (Homo sapiens) (P06213 763-1382 limits assumed): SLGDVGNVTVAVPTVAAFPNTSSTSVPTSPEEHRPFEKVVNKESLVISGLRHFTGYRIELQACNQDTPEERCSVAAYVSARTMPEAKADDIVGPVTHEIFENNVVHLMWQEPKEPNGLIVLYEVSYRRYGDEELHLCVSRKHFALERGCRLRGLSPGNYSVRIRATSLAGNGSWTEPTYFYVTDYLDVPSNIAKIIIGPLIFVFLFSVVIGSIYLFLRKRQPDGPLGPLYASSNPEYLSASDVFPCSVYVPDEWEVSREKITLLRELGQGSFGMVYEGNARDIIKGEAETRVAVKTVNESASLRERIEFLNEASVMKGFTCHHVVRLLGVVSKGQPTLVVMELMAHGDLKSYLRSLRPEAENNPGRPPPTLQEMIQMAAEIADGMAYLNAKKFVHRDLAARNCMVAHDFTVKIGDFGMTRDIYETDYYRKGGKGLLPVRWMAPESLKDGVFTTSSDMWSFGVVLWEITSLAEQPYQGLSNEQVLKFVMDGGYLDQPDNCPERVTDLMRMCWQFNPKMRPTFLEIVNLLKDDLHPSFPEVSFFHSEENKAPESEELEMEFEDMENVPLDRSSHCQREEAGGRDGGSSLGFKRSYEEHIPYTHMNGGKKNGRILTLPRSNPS

[7] = molecular target: Tyrosine-protein kinase Lyn (Homo sapiens) (UniProt P07948); test: Inhibition of recombinant human Lyn assessed as residual activity at 10 uM using poly(Glu, Tyr) 4:1 as substrate after 40 mins in presence of [gamma-33ATP] by scintillation counting based radiometry assay relative to control
Sequence of Tyrosine-protein kinase Lyn (Homo sapiens) (P07948 2-512 limits assumed): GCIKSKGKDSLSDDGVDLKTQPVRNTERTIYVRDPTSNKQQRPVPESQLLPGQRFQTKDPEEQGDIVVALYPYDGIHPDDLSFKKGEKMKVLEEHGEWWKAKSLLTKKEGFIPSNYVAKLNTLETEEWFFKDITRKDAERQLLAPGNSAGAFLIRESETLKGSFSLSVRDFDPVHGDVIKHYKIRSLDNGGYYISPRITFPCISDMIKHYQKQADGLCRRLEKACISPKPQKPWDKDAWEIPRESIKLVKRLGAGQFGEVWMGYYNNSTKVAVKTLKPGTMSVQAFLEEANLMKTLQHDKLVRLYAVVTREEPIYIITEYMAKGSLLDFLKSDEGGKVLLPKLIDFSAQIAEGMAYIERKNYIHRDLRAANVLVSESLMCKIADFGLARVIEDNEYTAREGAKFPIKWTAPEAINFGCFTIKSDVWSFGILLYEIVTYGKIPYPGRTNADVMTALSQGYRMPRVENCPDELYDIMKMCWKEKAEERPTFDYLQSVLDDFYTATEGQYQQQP

[8] = molecular target: Insulin receptor (Homo sapiens) (UniProt P06213); test: Inhibition of human IR activated (1005 to 1310 residues) assessed as residual activity at 10 uM using KKSRGDYMTMQIG as substrate after 40 mins by [gamma-33ATP] radiometric assay relative to control
[9] = system: Serine/threonine-protein kinase Chk2 (Homo sapiens), O96017 [R145W]; test: Inhibition of recombinant human CHK2 R145W mutant (5 to end residues) assessed as residual activity at 10 uM using KKKVSRSGLYRSPSMPENLNRPR as substrate incubated for 40 mins in presence of [gamma-33ATP] by scintillation counting based radiometry assay relative to control
Homo sapiens = species on record: Homo sapiens; test: Inhibition of recombinant human FLT4 V1128L/H1146R mutant (800 to end residues) assessed as residual activity at 10 uM using GGEEEEYFELVKKKK as substrate at 40 mins in presence of [gamma-33ATP] by scintillation counting based radiometry assay relative to control
[10] = molecular target: Dual specificity mitogen-activated protein kinase kinase 4 (Mus musculus) (UniProt P47809); test: Inhibition of recombinant mouse MKK4 (34 to end residues) assessed as residual activity at 10 uM using poly(Glu, Tyr) 4:1 as substrate incubated for 40 mins in presence of [gamma-33ATP] by scintillation counting based radiometry assay relative to control
[11] = molecular target: Protein kinase C iota type (Homo sapiens) (UniProt P41743); test: Inhibition of recombinant full-length human PKCiota assessed as residual activity at 10 uM using ERMRPRKRQGSVRRRV as substrate incubated for 40 mins in presence of [gamma33P]ATP by scintillation counting based radiometry assay relative to control
[12] = molecular target: 5'-AMP-activated protein kinase catalytic subunit alpha-2 (Homo sapiens) (UniProt P54646); test: Inhibition of recombinant full length human AMPKalpha2 assessed as residual activity at 10 uM using AMARAASAAALAR as substrate incubated for 40 mins in presence of [gamma-33ATP] by scintillation counting based radiometry assay relative to control
[13] = system: Mast/stem cell growth factor receptor Kit (Homo sapiens), P10721 [V654A]; test: Inhibition of recombinant human C-Kit V654A mutant (544 to end residues) assessed as residual activity at 10 uM poly(Glu, Tyr) 4:1 as substrate incubated 40 mins in presence of [gamma-33ATP] by scintillation counting based radiometry assay relative to control
Sequence of Mast/stem cell growth factor receptor Kit (Homo sapiens), P10721 [V654A] (P10721 whole entry V654A): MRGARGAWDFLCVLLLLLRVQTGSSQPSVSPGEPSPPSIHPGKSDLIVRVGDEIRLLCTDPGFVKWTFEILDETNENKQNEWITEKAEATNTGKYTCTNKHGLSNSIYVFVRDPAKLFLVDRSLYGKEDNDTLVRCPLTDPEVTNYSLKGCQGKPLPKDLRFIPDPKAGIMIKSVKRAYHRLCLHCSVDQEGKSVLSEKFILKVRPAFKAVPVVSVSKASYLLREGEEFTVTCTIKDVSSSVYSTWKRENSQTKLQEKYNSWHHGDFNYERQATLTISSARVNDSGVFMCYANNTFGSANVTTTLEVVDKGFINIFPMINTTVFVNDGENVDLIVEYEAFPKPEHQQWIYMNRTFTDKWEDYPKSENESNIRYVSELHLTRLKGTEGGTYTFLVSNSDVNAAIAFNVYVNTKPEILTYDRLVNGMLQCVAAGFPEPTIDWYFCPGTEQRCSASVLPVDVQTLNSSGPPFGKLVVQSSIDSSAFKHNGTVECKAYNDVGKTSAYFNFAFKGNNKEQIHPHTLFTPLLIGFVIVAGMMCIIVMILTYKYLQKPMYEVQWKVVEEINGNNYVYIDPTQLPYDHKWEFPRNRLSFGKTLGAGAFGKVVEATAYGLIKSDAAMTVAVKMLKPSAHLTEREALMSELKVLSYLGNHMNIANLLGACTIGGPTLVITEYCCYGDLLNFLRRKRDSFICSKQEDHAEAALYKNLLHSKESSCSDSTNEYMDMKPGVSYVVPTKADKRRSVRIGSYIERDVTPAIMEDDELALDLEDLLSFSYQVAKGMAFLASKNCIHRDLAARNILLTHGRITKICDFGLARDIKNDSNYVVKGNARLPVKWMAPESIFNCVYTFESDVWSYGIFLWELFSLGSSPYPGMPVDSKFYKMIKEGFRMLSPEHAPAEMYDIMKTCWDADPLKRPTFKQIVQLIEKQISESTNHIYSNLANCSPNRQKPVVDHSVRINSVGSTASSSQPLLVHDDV

[14] = molecular target: G protein-coupled receptor kinase 5 (Homo sapiens) (UniProt P34947); test: Inhibition of recombinant full length human GRK5 assessed as residual activity at 10 uM using casein as substrate at 40 mins in presence of [gamma-33ATP] by scintillation counting based radiometry assay relative to control
[15] = molecular target: Activin receptor type-2A (Homo sapiens) (UniProt P27037); test: Inhibition of human ACTR2 (162 to end residues) assessed as residual activity at 10 uM using casein as substrate incubated for 120 mins in presence of [gamma-33ATP] by scintillation counting based radiometry assay relative to control
[16] = system: Tyrosine-protein kinase ABL1 (Homo sapiens), P00519 [M351T]; test: Inhibition of human ABL1 M351T mutant (27 to end residues) assessed as residual activity at 10 uM using EAIYAAPFAKKK as substrate incubated for 40 mins in presence of [gamma-33ATP] by scintillation counting based radiometry assay relative to control
[17] = molecular target: Activin receptor type-1 (Homo sapiens) (UniProt Q04771); test: Inhibition of human ALK2 (147 to end residues) assessed as residual activity at 10 uM using casein as substrate incubated for 40 mins in presence of [gamma-33ATP] by scintillation counting based radiometry assay relative to control
Sequence of Activin receptor type-1 (Homo sapiens) (Q04771 whole entry): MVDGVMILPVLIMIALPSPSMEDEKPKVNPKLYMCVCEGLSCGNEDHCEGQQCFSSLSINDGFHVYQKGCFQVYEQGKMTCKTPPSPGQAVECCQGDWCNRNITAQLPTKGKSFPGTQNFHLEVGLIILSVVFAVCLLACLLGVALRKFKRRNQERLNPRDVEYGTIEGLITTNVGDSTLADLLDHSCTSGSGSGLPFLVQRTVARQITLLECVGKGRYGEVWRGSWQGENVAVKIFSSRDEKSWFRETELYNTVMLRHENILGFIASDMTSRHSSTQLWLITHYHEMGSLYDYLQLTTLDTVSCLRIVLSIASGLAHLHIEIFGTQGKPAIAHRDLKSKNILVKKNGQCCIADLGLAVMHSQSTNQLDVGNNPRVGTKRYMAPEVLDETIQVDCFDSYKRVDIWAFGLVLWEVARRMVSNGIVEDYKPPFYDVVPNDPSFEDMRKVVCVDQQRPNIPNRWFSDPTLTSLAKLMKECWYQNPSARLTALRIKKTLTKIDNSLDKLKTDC

[18] = system: Hepatocyte growth factor receptor (Homo sapiens), P08581 [D1228N]; test: Inhibition of recombinant human MET A1209G/V1290L/D1246N mutant (974 to end residues) assessed as residual activity at 10 uM using KKKGQEEEYVFIE as substrate incubated for 40 mins in presence of [gamma-33ATP by scintillation counting based radiometry assay relative to control
[19] = molecular target: Calcium/calmodulin-dependent protein kinase type 1B (Homo sapiens) (UniProt Q6P2M8); test: Inhibition of recombinant full length human CaMKIbeta assessed as residual activity at 10 uM using KKLRRTLSFAEP as substrate incubated for 40 mins in presence of [gamma-33ATP] by scintillation counting based radiometry assay relative to control
[20] = system: Tyrosine-protein kinase BTK (Homo sapiens), Q06187 [R28H]; test: Inhibition of recombinant full length human BTK R28H mutant assessed as residual activity at 10 uM using LSNLYHQGKFLQTFCGSPLYRRR substrate incubated for 40 mins in presence of [gamma-33ATP] by scintillation counting based radiometry assay relative to control

C[C@@H](c1ccccc1)n1nnc2cnc3ccc(-c4cnc5[nH]ccc5c4)cc3c21
Activity [1]: 73% | Activity [2]: 63% | Activity [3]: 32% | Activity [4]: 80% | Activity [5]: 93% | Activity [6]: 64% | Activity [7]: 3% | Activity [8]: 62% | Activity [9]: 81% | Activity (Homo sapiens): 13% | Activity [10]: 129% | Activity [11]: 81% | Activity [12]: 35% | Activity [13]: 109% | Activity [14]: 91% | Activity [15]: 101% | Activity [16]: 3% | Activity [17]: 88% | Activity [18]: 55% | Activity [19]: 67% | Activity [20]: 116%
